Experimental data published in patent US6525089B1, “Pharmaceutical composition containing decursin” (Binex Co., Ltd., priority 1998, dated 2003).

Tests used:
[1] = tested on: ICR mice; test: Urinary test, alloxan-treated mice; format: in vivo; settings: Alloxan + decursin group (50 mg/kg orally, 10 days)
Protocol: (§1) 2 days after ICR mice were given alloxan (75 mg/kg, i.v.), their glucose levels at fasting were measured to select high-glucose mice. The high-glucose mice were divided into two groups; physiological saline solution was given to one group, while decursin was orally administered to the other group at a dose of 50 mg/kg for 10 days. The alloxan-free group was also orally given physiological saline solution for 10 days. The body weighs were checked periodically, together with urinary tests. To isolate their sera and kidney, mice were slightly anesthetized with ether and their abdomens were dissected. The blood samples were collected from heart to isolate the sera. The kidney was perfused with 0.9% NaCl and isolated after removal of the blood. Then the weight of right kidney was measured. Further, to measure the protein amount from the kidney tissues, these tissues were assayed according to the Bradford method using Bio-Rad protein assay kit in the presence of bovine serum albumin as a reference standard. To measure the MDA in the kidney tissues, 0.4 ml of 10% sodium dodecylsulfate was added to 0.5 ml of 10% kidney-tissue homogenization solution and left in water bath at 37° C. for 30 minutes; With the subsequent addition of 0.1N-HCl (2 ml) and 0.67% TBA (1 ml), the mixture was voltexed and left in boiling water bath for 30 minutes. The mixture was further cooled in ice bath for 2˜3 minutes to stop the reaction. Then 2 ml of n-butanol was added to the mixture, stirred well and centrifuged at 3000 rpm for 10 minutes. The supernatant was collected to measure the absorbance at 532 nm. 10 μg/ml tetraethoxypropane (TEP) was employed as a reference standard. To measure the MDA in sera, 0.8% thiobarbituric acid (TBA) was added to 0.5 ml of sera and left in boiling water bath for 30 minutes. The mixture was further cooled in ice bath for 2˜3 minutes to stop the reaction. The supernatant was collected to measure the absorbance at 532 nm. 10 μg/ml TEP was employed as a reference standard.

[2] = tested on: U-937 cells; test: Esterase activity test: naphthol AS-D chloroacetate esterase; format: cell-based, human; settings: percentage of cells showing activity
Protocol: To determine naphthol AS-D chloroacetate esterase activity, the cultured solution of U-937 cells was pelleted by centrifugation at 2000 rpm for 5 minutes, followed by the addition of 100 μl PBS to prepare a cell-concentrated solution. A drop of the cell solution was put on a slide glass and dried for more than 1 hour. Then 40 ml of deionized water was preheated at 37° C. 1 ml of […] solution was mixed with 1 ml of Fast Red Violet LB base solution and left for 2 minutes. The mixture was added to 40 ml of preheated deionized water. After the addition of 5 ml of TRIZMAL TM 6.3) buffer solution (Sigma Co. T-3128) and 1 ml of naphthol AS-D chloroacetate solution, the resulting solution, which was turned to red color was poured on a petri dish. The cells on a slide glass were fixed with citrate-acetone-formaldehyde solution, (CAF solution) at room temperature. The cells were soaked in the previously prepared solution and incubated at 37° C. for 30 minutes at a dark place. The cells were completely washed with deionized water for more than 2 minutes and counterstained with hematoxylin solution for 2 minutes, washed with tap water and dried in the air. After completely dried, the cells were observed under a microscope to calculate the reddish cell numbers by percentage.
Thus it was considered that the cells were differentiated into macrophage.like cells by the action of decursin.

[3] = tested on: U-937 cells; test: Growth inhibition test (trypan blue exclusion); format: cell-based, human
Protocol: U-937 cells, optioned from Korea Cell Line Bank, was cultured in RPMI 1640 medium (Sigma Co., R-6504) supplemented with 10% fetal bovine serum (FBS). The medium was exchanged every 5 day by 70%. U-937 cells were inoculated into a cell culture dish at concentration of 2×10^5 cells/ml. Then decursin added into the dish at concentration of 10^−8˜10^−6M, then the cells were cultured for 4 days. Trypan blue exclusion test was performed to determine the number of live cells using a hemacytometer, and the percentage of cancer-cell growth inhibition was calculated. Then, the differentiation was induced by treating with 10^−2M diluted ethanol solution containing various amount of decursin in the medium.

[4] = tested on: ICR mice; test: BUN and MDA in blood and MDA in renal tissue, alloxan-treated mice; format: in vivo; settings: alloxan 75 mg/kg i.v. + decursin 50 mg/kg orally for 10 days
Protocol: as §1
Mice were orally given decursin at a dose of 50 mg/kg for 10 days continuously. Then various parameters such as BUN and MDA in the blood as a marker of renal failure were measured, together with urinary test. When […] (table 4), the BUN value of single alloxan-treated group, 17.4±3.7 mg/dl was recovered to the normal level (4.8±0.6 mg/dl) by the treatment of decursin. The MDA value of single alloxan-treated group, 0.51±0.07, was reduced to 0.36±0.03 by the treatment of decursin, which was similar to a normal control group. Thus it was noted that the damage in the kidney was completely recovered. Since the reduction of both MDA values in the blood and kidney tissues may be clinically reasonable and desirable, the MDA value in the kidney tissues was measured. As a result, the MDA value in the kidney tissues of a single alloxan-treated group, 13.24±5.93, was reduced to 5.63±0.99 by the treatment of decursin, which was lower than that of normal control group (8.44±1.01).

[5] = Body weight, alloxan-treated mice; format: in vivo; settings: ICR mice, alloxan + decursin 50 mg/kg orally for 10 days
Protocol: 2 days after ICR mice were given alloxan (75 mg/kg, i.v.), their glucose levels at fasting were measured to select high-glucose mice. The high-glucose mice were divided into two groups; physiological saline solution was given to one group, while decursin was orally administered to the other group at a dose of 50 mg/kg for 10 days. The alloxan-free group was also orally given physiological saline solution for 10 days. The body weighs were checked periodically, together with urinary tests. To isolate their sera and kidney, mice were slightly anesthetized with ether and their abdomens were dissected. The blood samples were collected from heart to isolate the sera. The kidney was perfused with 0.9% NaCl and isolated after removal of the blood. Then the weight of right kidney was measured. Further, to measure the protein amount from the kidney tissues, these tissues were assayed according to the Bradford method using Bio-Rad protein assay kit in the presence of bovine serum albumin as a reference standard. […] The supernatant was collected to measure the absorbance at 532 nm. […] The supernatant was collected to measure the absorbance at 532 nm. […]

[6] = tested on: normal cells (LLC-PK1); test: Cytotoxicity test on normal cells; format: cell-based; settings: 3 days
Protocol: To determine the cytotoxicity of decursin on normal cells, they were sub-cultured in a medium-199 containing, 3% fetal bovine serum (FBS), penicillin (100 U/ml) and streptomycin (100 μg/ml) every 3 to 4 day. Then cells were treated with trypsin to prepare a cell suspension. 1 ml of the cell suspension was seeded on 24-well plate at a concentration of 2×10^5 in cells/ml an d attached to the medium for one day. After the supernatant was removed, 1 ml of decursin was added to the cell culture medium at appropriate concentrations and incubated for 3 days to count the cell numbers.

[7] = tested on: cell lines of uterine cancer, leukemia, hepatoma or large intestine cancer; settings: cited from earlier work

For CC(C)=CC(=O)O[C@H]1Cc2cc3ccc(=O)oc3cc2OC1(C)C [decursin], the “Urinary test Bilirubin: count in category +” value [1] was 2, the “Urinary test Bilirubin: count in category −” value [1] was 8 and the “Urinary test Glucose: count in category +” value [1] was 1. For the same compound, the “Urinary test Glucose: count in category −” value [1] was 9, the “Urinary test Ketone: count in category −” value [1] was 10 and the “Urinary test Nitrite: count in category −” value [1] was 10. The “Urinary test Occult blood: count in category +” value [1] was 2, the “Urinary test Occult blood: count in category −” value [1] was 8 and the “Urinary test Protein: count in category −” value [1] was 10. For the same compound, the “Urinary test Specific gravity: count in category −” value [1] was 10, the “Urinary test Urobilinogen: count in category +” value [1] was 1 and the “Urinary test Urobilinogen: count in category −” value [1] was 9. The “Urinary test pH: count in category −” value [1] was 10, the “Naphtol AS-D chloroacetate esterase Activity (%)” value [2] was 0.0% and the “Growth inhibition rate (%)” value ([3]; 1 × 10^−7M, 4 days (96 hours)) was 42.0 ± 6.4%. For the same compound, the inhibition at 1 µM ([3]; Homo sapiens, U-937, 96 h, 1 × 10^−6M, 4 days (96 hours), read-out: Growth inhibition rate (%)) was 52 ± 2.8%, the inhibition at 0.1 µM ([3]; Homo sapiens, U-937, 96 h, 1 × 10^−7M, 4 days (96 hours), read-out: Growth inhibition rate (%)) was roughly 33% and the inhibition at 0.01 µM ([3]; Homo sapiens, U-937, 96 h, 1 × 10^−8M, 4 days (96 hours), read-out: Growth inhibition rate (%)) was 31 ± 7.8%. For the same compound, the inhibition at 0.5 µM ([3]; Homo sapiens, U-937, 96 h, 5 × 10^−7M, 4 days (96 hours), read-out: Growth inhibition rate (%)) was 48 ± 7.1%, the inhibition at 0.05 µM ([3]; Homo sapiens, U-937, 96 h, 5 × 10^−8M, 4 days (96 hours), read-out: Growth inhibition rate (%)) was 35.5 ± 7.4% and the “growth inhibition rate (inhibitory effect)” value ([3]; after 96 hours, concentration of 10^−8˜10^−6M) was 30-50%. For the same compound, the BUN [4] was 4.8 ± 0.6 mg/dL, the MDA in blood [4] was 0.36 ± 0.03 µg/mL and the “MDA in renal tissue” value [4] was 5.63 ± 0.99 µg/g. For the same compound, the “weight loss of the alloxan-treated group” value [5] was “significantly reduced”, the “Growth inhibition rate (%)” value ([6]; 1 × 10^−6M) was 0.0 ± 0.0% and the “Growth inhibition rate (%)” value ([6]; 1 × 10^−7M) was 0.0 ± 0.0%. For the same compound, the “Growth inhibition rate (%)” value ([6]; 1 × 10^−8M) was 0.0 ± 0.0%, the “Growth inhibition rate (%)” value ([6]; 5 × 10^−7M) was 0.0 ± 0.0% and the “Growth inhibition rate (%)” value ([6]; 5 × 10^−8M) was 0.0 ± 0.0%. For the same compound, the “concentration at which decursin has toxicity on cancer cell lines” value [7] was “more than 10 ppm”.
